Reference: the NIST ThermoML archive (doi:10.1016/j.tca.2014.07.022)

Test: xn = mol fraction of the nth substance listed
Conditions: 100 kPa, Liquid; for viscosity: Concentric cylinders viscometry; for mass density: Vibrating tube method

CC(=O)CC(C)C [4-methylpentan-2-one] + CCC(C)O
Conditions	mass density [kg/m3]	viscosity [mPa·s]
293.15 K, x1 = 0.1002	805.1	2.361
293.15 K, x1 = 0.1905	803.8	1.802
293.15 K, x1 = 0.2801	802.8	1.468
293.15 K, x1 = 0.4054	801.7	1.162
293.15 K, x1 = 0.4891	801.2	1.001
293.15 K, x1 = 0.6123	800.7	0.84
293.15 K, x1 = 0.6942	800.5	0.771
293.15 K, x1 = 0.779	800.5	0.713
293.15 K, x1 = 0.8747	800.5	0.646
293.15 K, x1 = 0.9522	800.7	0.614
293.15 K, x1 = 1	800.8	0.588
298.15 K, x1 = 0.1002	800.9	2.041
298.15 K, x1 = 0.1905	799.5	1.598
298.15 K, x1 = 0.2801	798.4	1.311
298.15 K, x1 = 0.4054	797.2	1.053
298.15 K, x1 = 0.4891	796.6	0.916
298.15 K, x1 = 0.6123	796	0.776
298.15 K, x1 = 0.6942	795.9	0.717
298.15 K, x1 = 0.779	795.8	0.666
298.15 K, x1 = 0.8747	795.8	0.607
298.15 K, x1 = 0.9522	796	0.582
298.15 K, x1 = 1	796.1	0.554
303.15 K, x1 = 0.1002	796.4	1.762
303.15 K, x1 = 0.1905	795	1.403
303.15 K, x1 = 0.2801	793.9	1.173
303.15 K, x1 = 0.4054	792.6	0.955
303.15 K, x1 = 0.4891	792.1	0.84
303.15 K, x1 = 0.6123	791.5	0.716
303.15 K, x1 = 0.6942	791.3	0.668
303.15 K, x1 = 0.779	791.2	0.621
303.15 K, x1 = 0.8747	791.3	0.569
303.15 K, x1 = 0.9522	791.4	0.545
303.15 K, x1 = 1	791.6	0.523
308.15 K, x1 = 0.1002	792	1.531
308.15 K, x1 = 0.1905	790.5	1.247
308.15 K, x1 = 0.2801	789.3	1.055
308.15 K, x1 = 0.4054	788	0.87
308.15 K, x1 = 0.4891	787.4	0.775
308.15 K, x1 = 0.6123	786.7	0.664
308.15 K, x1 = 0.6942	786.5	0.623
308.15 K, x1 = 0.779	786.5	0.582
308.15 K, x1 = 0.8747	786.5	0.536
308.15 K, x1 = 0.9522	786.7	0.513
308.15 K, x1 = 1	786.9	0.493
313.15 K, x1 = 0.1002	787.6	1.341
313.15 K, x1 = 0.1905	786	1.1
313.15 K, x1 = 0.2801	784.7	0.94
313.15 K, x1 = 0.4054	783.4	0.787
313.15 K, x1 = 0.4891	782.7	0.708
313.15 K, x1 = 0.6123	782.1	0.621
313.15 K, x1 = 0.6942	781.9	0.58
313.15 K, x1 = 0.779	781.8	0.544
313.15 K, x1 = 0.8747	781.9	0.505
313.15 K, x1 = 0.9522	782.1	0.485
313.15 K, x1 = 1	782.3	0.463
318.15 K, x1 = 0.1002	783	1.181
318.15 K, x1 = 0.1905	781.3	0.984
318.15 K, x1 = 0.2801	780	0.847
318.15 K, x1 = 0.4054	778.6	0.715
318.15 K, x1 = 0.4891	777.9	0.649
318.15 K, x1 = 0.6123	777.3	0.575
318.15 K, x1 = 0.6942	777.1	0.535
318.15 K, x1 = 0.779	777	0.505
318.15 K, x1 = 0.8747	777.1	0.477
318.15 K, x1 = 0.9522	777.4	0.458
318.15 K, x1 = 1	777.6	0.437
323.15 K, x1 = 0.1002	778.3	1.035
323.15 K, x1 = 0.1905	776.6	0.88
323.15 K, x1 = 0.2801	775.3	0.772
323.15 K, x1 = 0.4054	773.8	0.662
323.15 K, x1 = 0.4891	773.2	0.603
323.15 K, x1 = 0.6123	772.6	0.535
323.15 K, x1 = 0.6942	772.4	0.501
323.15 K, x1 = 0.779	772.3	0.471
323.15 K, x1 = 0.8747	772.5	0.449
323.15 K, x1 = 0.9522	772.7	0.434
323.15 K, x1 = 1	773	0.41

CCCC(C)O (stereo not drawn) [pentan-2-ol] + CC(=O)CC(C)C
Conditions	mass density [kg/m3]	viscosity [mPa·s]
293.15 K, x2 = 0	809.3	3.974
293.15 K, x2 = 0.0812	807.6	2.699
293.15 K, x2 = 0.1588	806.2	2.09
293.15 K, x2 = 0.2391	804.9	1.709
293.15 K, x2 = 0.3508	803.3	1.366
293.15 K, x2 = 0.4441	802.4	1.14
293.15 K, x2 = 0.561	801.4	0.924
293.15 K, x2 = 0.6484	800.9	0.818
293.15 K, x2 = 0.741	800.7	0.74
293.15 K, x2 = 0.8528	800.5	0.671
293.15 K, x2 = 0.9406	800.7	0.63
298.15 K, x2 = 0	805.3	3.277
298.15 K, x2 = 0.0812	803.5	2.326
298.15 K, x2 = 0.1588	801.9	1.83
298.15 K, x2 = 0.2391	800.6	1.496
298.15 K, x2 = 0.3508	799	1.202
298.15 K, x2 = 0.4441	797.9	1.018
298.15 K, x2 = 0.561	796.9	0.85
298.15 K, x2 = 0.6484	796.4	0.767
298.15 K, x2 = 0.741	796	0.69
298.15 K, x2 = 0.8528	795.9	0.63
298.15 K, x2 = 0.9406	795.9	0.59
303.15 K, x2 = 0	801.2	2.717
303.15 K, x2 = 0.0812	799.3	2.029
303.15 K, x2 = 0.1588	797.7	1.619
303.15 K, x2 = 0.2391	796.3	1.333
303.15 K, x2 = 0.3508	794.6	1.078
303.15 K, x2 = 0.4441	793.5	0.928
303.15 K, x2 = 0.561	792.4	0.787
303.15 K, x2 = 0.6484	791.9	0.711
303.15 K, x2 = 0.741	791.5	0.641
303.15 K, x2 = 0.8528	791.3	0.589
303.15 K, x2 = 0.9406	791.4	0.553
308.15 K, x2 = 0	797	2.282
308.15 K, x2 = 0.0812	795	1.757
308.15 K, x2 = 0.1588	793.4	1.429
308.15 K, x2 = 0.2391	791.9	1.185
308.15 K, x2 = 0.3508	790.1	0.966
308.15 K, x2 = 0.4441	788.9	0.842
308.15 K, x2 = 0.561	787.8	0.728
308.15 K, x2 = 0.6484	787.2	0.663
308.15 K, x2 = 0.741	786.8	0.6
308.15 K, x2 = 0.8528	786.6	0.554
308.15 K, x2 = 0.9406	786.7	0.526
313.15 K, x2 = 0	792.7	1.931
313.15 K, x2 = 0.0812	790.6	1.52
313.15 K, x2 = 0.1588	788.9	1.249
313.15 K, x2 = 0.2391	787.4	1.051
313.15 K, x2 = 0.3508	785.6	0.876
313.15 K, x2 = 0.4441	784.3	0.773
313.15 K, x2 = 0.561	783.2	0.675
313.15 K, x2 = 0.6484	782.6	0.617
313.15 K, x2 = 0.741	782.2	0.561
313.15 K, x2 = 0.8528	782	0.522
313.15 K, x2 = 0.9406	782.1	0.497
318.15 K, x2 = 0	788.4	1.647
318.15 K, x2 = 0.0812	786.3	1.329
318.15 K, x2 = 0.1588	784.5	1.116
318.15 K, x2 = 0.2391	782.9	0.949
318.15 K, x2 = 0.3508	781	0.8
318.15 K, x2 = 0.4441	779.8	0.712
318.15 K, x2 = 0.561	778.6	0.627
318.15 K, x2 = 0.6484	778	0.577
318.15 K, x2 = 0.741	777.6	0.53
318.15 K, x2 = 0.8528	777.3	0.492
318.15 K, x2 = 0.9406	777.4	0.465
323.15 K, x2 = 0	784	1.419
323.15 K, x2 = 0.0812	781.9	1.168
323.15 K, x2 = 0.1588	780	0.995
323.15 K, x2 = 0.2391	778.4	0.855
323.15 K, x2 = 0.3508	776.5	0.729
323.15 K, x2 = 0.4441	775.2	0.654
323.15 K, x2 = 0.561	774	0.583
323.15 K, x2 = 0.6484	773.4	0.543
323.15 K, x2 = 0.741	772.9	0.505
323.15 K, x2 = 0.8528	772.7	0.468
323.15 K, x2 = 0.9406	772.8	0.445
